Test system: Aβ42 (human neuroglioma H4 cells expressing human wild type APP751)
Experiment: In vitro cell screening assay with sandwich ELISA quantification of Aβ42 peptide
Format: cell-based
Details: H4 cells stably expressing human wild type APP751; Pro293 chemically defined medium; compounds 0.003-10 μM; incubated overnight (16-18 h); supernatant Aβ42 by sandwich ELISA; normalized to DMSO and DAPT; read-out: Aβ42 H4 Prot Fre IC50
How it was run: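 Aβ42 in supernatants was quantified by sandwich ELISA with C-terminal-specific capture and 4G8-HRP detection, absorbance at 450 nm. Stable APP751-expressing human H4 cells received compound at 0.003-10 μM (0.33% DMSO) overnight (16-18 h). IC50 was derived from percent-of-DMSO-control data by nonlinear variable-slope fit.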

`COc1cc(Nc2ncc3c(n2)N(C)C2(CCCC2)CO3)cnc1-c1cnn(C)c1` [Example 266] was tested, and the IC50 was over 3000 nM.
For `Cc1cn(-c2ccc(Nc3ncc4c(n3)N(C)C(c3ccccc3C)CO4)cc2F)cn1` (single isomer, unassigned; (+)) [Example 34A], the IC50 was 20 nM.
Compound `COc1cc(Nc2ncc3c(n2)N(C)C(c2ccc(F)cc2)CO3)ccc1-c1ccnc(C)c1` (single isomer, unassigned; (-)) [Example 61A] has an IC50 of 1010 nM.
For `COC[C@H]1COc2cnc(Nc3ccc(-n4cnc(C)c4)c(F)c3)nc2N1C` [Example 113], the IC50 was 331 nM.
In the case of `COc1nc(Nc2ncc3c(n2)N(C)C(c2cc(F)cc(F)c2)CO3)ccc1-c1cnn(C)c1` (single isomer, unassigned; (-)) [Example 184A], the IC50 is reported as over 3000 nM.
In the case of `COc1cc(Nc2ncc3c(n2)N(C)[C@@H](C2CCC2)CO3)cnc1-n1cnc(C)c1` [Example 235], the IC50 is reported as 17 nM.
`Cc1cn(-c2ccc(Nc3ncc4c(n3)N(C)C(c3cc(F)cc(F)c3)CO4)nc2C#N)cn1` (single isomer, unassigned; (+)) [Example 192B, (+)-6-((7-(3,5-difluorophenyl)-8-methyl-7,8-dihydro-6H-pyrimido [5,4-b] [1, 4]oxazin-2-yl)amino)-3-(4-methyl-1H-imidazol-1-yl) picolinonitrile] gave an IC50 of 576 nM.
For `COc1cc(Nc2ncc3c(n2)N(C)C2(CCCC2)CO3)ccc1-c1cnn(C)c1` [Example 264], the IC50 was 260 nM.
`COc1cc(Nc2ncc3c(n2)N2CC(F)(F)C[C@H]2CO3)cnc1-n1cnc(C)c1` [Example 298, (S)-8,8-difluoro-N-(5-methoxy-6-(4-methyl-1H-imidazol-1-yl)pyridin-3-yl)-6a, 7,8,9-tetrahydro-6H-pyrimido [5,4-b] pyrrolo [1,2-d] [1, 4] oxazin-2-amine] was tested, and the IC50 was 177 nM.
`COc1cc(Nc2ncc3c(n2)N(C)C(c2ccc(F)cc2F)CO3)ccc1-n1cnc(C)c1` (single isomer, unassigned; (-)) [Example 48A] showed an IC50 of 328 nM.
`COc1cc(Nc2ncc3c(n2)N(C)C(C(F)(F)F)CO3)ccc1-n1cnc(Cl)c1` (single isomer, unassigned; (+)) [Example 228A] was tested, and the IC50 was 331 nM.
`COc1ccc(C2COc3cnc(Nc4cnc(-n5cnc(C)c5)c(OC)c4)nc3N2C)c(Cl)c1` (single isomer, unassigned; (+)) [Example 209A] gave an IC50 of 21 nM.
`COc1cc(Nc2ncc3c(n2)N(C)C(C2COC2)CO3)ccc1-n1cnc(C)c1` (single isomer, unassigned; (+)) [Example 241B] gave an IC50 of 342 nM.
Work on `COc1cc(Nc2ncc3c(n2)N(C)C2(CCOCC2)CO3)ccc1-n1cnc(C)c1` [Example 273] yielded an IC50 of 111 nM.
`COc1cc(Nc2ncc3c(n2)N(C)C(c2ccc(F)cc2Cl)CO3)ccc1-n1cnc(C)c1` (single isomer, unassigned; (+)) [Example 93B] showed an IC50 of 32 nM.
`COc1cc(Nc2ncc3c(n2)N(C)C(C2CCC(F)(F)CC2)CO3)ccc1-n1cnc(C)c1` (single isomer, unassigned; (+)) [Example 216B] was tested, and the IC50 was 33 nM.
`Cc1cn(-c2ccc(Nc3ncc4c(n3)N(C)C(c3ccccc3)CO4)cc2)cn1` (racemic) [Example 26] showed an IC50 of 121 nM.
With `COc1cc(Nc2ncc3c(n2)N(C)C(c2ccc(F)cc2C(F)(F)F)CO3)ccc1-n1cnc(C)c1` (single isomer, unassigned; (+)) [Example 94B] the IC50 was 29 nM.
`COc1nc(Nc2ncc3c(n2)N(C)C(c2cc(F)cc(F)c2)CO3)ccc1-n1cnc(C)c1` (single isomer, unassigned; (+)) [Example 179B] was tested, and the IC50 was 287 nM.
For `COc1cc(Nc2ncc3c(n2)N(C)C(c2ccc(F)cc2F)CO3)ccc1-c1ccnc(C)c1` (single isomer, unassigned; (+)) [Example 63B], the IC50 was 64 nM.
For `COc1nc(Nc2ncc3c(n2)N(C)C(c2ccccc2C)CO3)ccc1-n1cnc(C)c1` (single isomer, unassigned; (-)) [Example 180A], the IC50 was over 3000 nM.
Compound `Cc1cn(-c2ccc(Nc3ncc4c(n3)N(C)C(c3ccc(Cl)cc3Cl)CO4)cc2F)cn1` (single isomer, unassigned; (+)) [Example 96A] has an IC50 of 76 nM.
In the case of `Cc1cn(-c2ccc(Nc3ncc4c(n3)N(C)C(c3cc(F)cc(F)c3)CO4)nc2C#N)cn1` (single isomer, unassigned; (-)) [Example 192A, (−)-6-((7-(3,5-difluorophenyl)-8-methyl-7,8-dihydro-6H-pyrimido [5,4-b] [1, 4]oxazin-2-yl)amino)-3-(4-methyl-1H-imidazol-1-yl) picolinonitrile], the IC50 is reported as over 3000 nM.
Work on `COc1cc(Nc2ncc3c(n2)N(C)C(C2CC(F)(F)C2)CO3)cnc1-n1cnc(C)c1` (single isomer, unassigned; (+)) [Example 219A] yielded an IC50 of 25 nM.
Compound `Cc1cn(-c2ccc(Nc3ncc4c(n3)N3CCC[C@@]3(C)CO4)cc2F)cn1` [Example 292, (S)-N-(3-fluoro-4-(4-methyl-1H-imidazol-1-yl)phenyl)-6a-methyl-6a, 7,8,9-tetrahydro-6H-pyrimido [5,4-b] pyrrolo [1,2-d] [1, 4] oxazin-2-amine] has an IC50 of 438 nM.
`Cc1cn(-c2ccc(Nc3ncc4c(n3)N(C)C(C)CO4)cn2)cn1` (single isomer, unassigned; (+)) [Example 194A] gave an IC50 of 970 nM.
`Cc1cn(-c2ccc(Nc3ncc4c(n3)N(C)C(c3ccccc3)CO4)cc2)cn1` (single isomer, unassigned; (+)) [Example 26A] showed an IC50 of 55 nM.
`Cc1cn(-c2ccc(Nc3ncc4c(n3)N(C)C(c3cc(F)cc(F)c3)CO4)cc2C#N)cn1` (single isomer, unassigned; (+)) [Example 203A, (+)-5-((7-(3,5-difluorophenyl)-8-methyl-7,8-dihydro-6H-pyrimido [5,4-b] [1, 4]oxazin-2-yl)amino)-2-(4-methyl-1H-imidazol-1-yl) benzonitrile] was tested, and the IC50 was 16 nM.
Compound `Cc1cn(-c2ccc(Nc3ncc4c(n3)N(C)C(c3cc(F)cc(F)c3)CO4)cc2C(F)F)cn1` (single isomer, unassigned; (-)) [Example 222B] has an IC50 of over 3000 nM.
Compound `Cc1cn(-c2ccc(Nc3ncc4c(n3)N(C)C(c3ccccc3C)CO4)cc2)cn1` (single isomer, unassigned; (+)) [Example 43A] has an IC50 of 31 nM.
`COc1cc(Nc2ncc3c(n2)N2CCCC2CO3)ccc1-n1cnc(C)c1` (single isomer, unassigned; (-)) [Example 290A, (−)-N-(3-methoxy-4-(4-methyl-1H-imidazol-1-yl)phenyl)-6a, 7,8,9-tetrahydro-6H-pyrimido [5,4-b] pyrrolo [1,2-d] [1, 4] oxazin-2-amine] gave an IC50 of 71 nM.
Work on `COc1cc(Nc2ncc3c(n2)N(C)C(c2cc(F)cc(F)c2)CO3)ccc1-n1cnc(C)c1` (single isomer, unassigned; (-)) [Example 30A] yielded an IC50 of 177 nM.
In the case of `Cc1cn(-c2ccc(Nc3ncc4c(n3)N(C)C(c3cc(F)c(F)c(F)c3)CO4)cc2)cn1` (racemic) [Example 44], the IC50 is reported as 75 nM.
Compound `Cc1cn(-c2ccc(Nc3ncc4c(n3)N(C)C(c3ccc(Cl)cc3C(F)(F)F)CO4)cc2F)cn1` (single isomer, unassigned; (-)) [Example 106B] has an IC50 of 1020 nM.
In the case of `Cc1cn(-c2ccc(Nc3ncc4c(n3)N(C)C(c3cc(F)cc(F)c3)CO4)cc2)cn1` (racemic) [Example 23], the IC50 is reported as 37.9 nM.
With `Cc1cn(-c2ccc(Nc3ncc4c(n3)N(C)C(c3cc(C(F)(F)F)ccc3Cl)CO4)cc2F)cn1` (single isomer, unassigned; (+)) [Example 173A] the IC50 was 72 nM.

Source: US9771378B2 (Denali Therapeutics, Inc., priority 2014, dated 2017)
